What was measured:
[1] = tested on: normal NK cells expanded with K562-aAPC; experiment: drug sensitivity score (DSS) (DSS units); higher = more sensitive; extreme values may be limits of the assay; conditions: 72 h; IL-2 2.5 ng/mL
Protocol: (§1)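 Drug sensitivity and resistance testing on K562-aAPC-expanded normal NK cells: 5 concentrations (10-fold steps over a 10,000-fold range), 72 h at 37 °C, viability by CellTiter-Glo normalised to DMSO and benzethonium chloride controls; DSS from the fitted curve.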

[2] = tested on: normal primary NK cells, pool 3 (3 donors) (IL-2 2.5 ng/mL); experiment: as above; conditions: 72 h
KAI3 (IL-2 2.5 ng/mL) [3] = experiment: as above; conditions: 72 h
[4] = tested on: normal primary NK cells, pool 1 (3 donors) (IL-2 2.5 ng/mL); experiment: as above; conditions: 72 h
SNK-6 (IL-2 2.5 ng/mL) [5] = experiment: as above; conditions: 72 h
KHYG-1 (IL-2 2.5 ng/mL) [6] = experiment: as above; conditions: 72 h
[7] = tested on: normal primary NK cells, pool 2 (3 donors) (IL-2 2.5 ng/mL); experiment: as above; conditions: 72 h
NK-92 (IL-2 2.5 ng/mL) [8] = experiment: as above; conditions: 72 h
YT (IL-2 2.5 ng/mL) [9] = experiment: as above; conditions: 72 h
DERL-7 (IL-2 2.5 ng/mL) [10] = experiment: as above; conditions: 72 h
[11] = tested on: normal primary NK cells, pool 1 (3 donors), resting (IL-2 0 ng/mL); experiment: as above; conditions: 72 h
NKL (IL-2 2.5 ng/mL) [12] = experiment: as above; conditions: 72 h
NK-YS (IL-2 2.5 ng/mL) [13] = experiment: as above; conditions: 72 h
IMC-1 (IL-2 20 ng/mL) [14] = experiment: as above; conditions: 72 h
[15] = tested on: normal NK cells expanded with K562-aAPC; experiment: percent inhibition of viability; higher = more inhibition; conditions: 72 h, IL-2 2.5 ng/mL
Protocol: as §1

[16] = tested on: normal primary NK cells, pool 3 (3 donors) (IL-2 2.5 ng/mL); experiment: as above; conditions: 72 h
KAI3 (IL-2 2.5 ng/mL) [17] = experiment: as above; conditions: 72 h
[18] = tested on: normal primary NK cells, pool 1 (3 donors) (IL-2 2.5 ng/mL); experiment: as above; conditions: 72 h
SNK-6 (IL-2 2.5 ng/mL) [19] = experiment: as above; conditions: 72 h
KHYG-1 (IL-2 2.5 ng/mL) [20] = experiment: as above; conditions: 72 h
[21] = tested on: normal primary NK cells, pool 2 (3 donors) (IL-2 2.5 ng/mL); experiment: as above; conditions: 72 h
NK-92 (IL-2 2.5 ng/mL) [22] = experiment: as above; conditions: 72 h
YT (IL-2 2.5 ng/mL) [23] = experiment: as above; conditions: 72 h
DERL-7 (IL-2 2.5 ng/mL) [24] = experiment: as above; conditions: 72 h
[25] = tested on: normal primary NK cells, pool 1 (3 donors), resting (IL-2 0 ng/mL); experiment: as above; conditions: 72 h
NKL (IL-2 2.5 ng/mL) [26] = experiment: as above; conditions: 72 h
NK-YS (IL-2 2.5 ng/mL) [27] = experiment: as above; conditions: 72 h
IMC-1 (IL-2 20 ng/mL) [28] = experiment: as above; conditions: 72 h

Cc1nc(Nc2n[nH]c3c2CN(C(=O)N[C@H](CN(C)C)c2ccccc2)C3(C)C)c2sccc2n1 (max concentration tested 10000 nM)
Conditions | drug sensitivity score
DERL-7 (IL-2 2.5 ng/mL) [10] | 24.7
IMC-1 (IL-2 20 ng/mL) [14] | 41.6
KAI3 (IL-2 2.5 ng/mL) [3] | 18.1
KHYG-1 (IL-2 2.5 ng/mL) [6] | 29.5
NK-92 (IL-2 2.5 ng/mL) [8] | 15.2
NK-YS (IL-2 2.5 ng/mL) [13] | 23
NKL (IL-2 2.5 ng/mL) [12] | 14.4
SNK-6 (IL-2 2.5 ng/mL) [5] | 8.41
YT (IL-2 2.5 ng/mL) [9] | 17.5
[1] | 11.5
[2] | 8.84
[4] | 9.34
[7] | 13.5
[11] | 9.24

percent inhibition of viability [%]
Conditions | 1 nM | 10 nM | 100 nM | 1000 nM | 10000 nM
DERL-7 (IL-2 2.5 ng/mL) [24] | 5.19 | 43.4 | 60.3 | 59.5 | 100
IMC-1 (IL-2 20 ng/mL) [28] | -7.89 | 94 | 100 | 100 | 101
KAI3 (IL-2 2.5 ng/mL) [17] | 9.34 | 25.2 | 38.2 | 52.7 | 103
KHYG-1 (IL-2 2.5 ng/mL) [20] | 3.44 | 16.8 | 81.4 | 96.4 | 106
NK-92 (IL-2 2.5 ng/mL) [22] | 2.81 | 5.29 | 27.2 | 59.5 | 105
NK-YS (IL-2 2.5 ng/mL) [27] | 0.35 | 42.8 | 54.1 | 57.7 | 101
NKL (IL-2 2.5 ng/mL) [26] | -10.4 | 9.99 | 31.3 | 50.3 | 103
SNK-6 (IL-2 2.5 ng/mL) [19] | -2.61 | 16.3 | 16 | 31.2 | 87.1
YT (IL-2 2.5 ng/mL) [23] | 0.99 | 13.6 | 41.7 | 56 | 104
[15] | 4.54 | 6.07 | 22.4 | 41.8 | 101
[16] | -6.36 | 3.67 | 21.6 | 29.7 | 98.9
[18] | 5.07 | 3.65 | 18.4 | 34.4 | 98.8
[21] | -7.71 | 9.61 | 27.4 | 49.4 | 98.1
[25] | 5.47 | -19.5 | 8.53 | 35.1 | 92.2

Cc1cc(Nc2ncc(Cl)c(Nc3ccccc3S(=O)(=O)C(C)C)n2)c(OC(C)C)cc1C1CCNCC1 [Ceritinib] (max concentration tested 2500 nM)
Conditions | drug sensitivity score
DERL-7 (IL-2 2.5 ng/mL) [10] | 0.92
IMC-1 (IL-2 20 ng/mL) [14] | 0.89
KAI3 (IL-2 2.5 ng/mL) [3] | 0
KHYG-1 (IL-2 2.5 ng/mL) [6] | 0
NK-92 (IL-2 2.5 ng/mL) [8] | 0
NK-YS (IL-2 2.5 ng/mL) [13] | 0.89
NKL (IL-2 2.5 ng/mL) [12] | 0.89
SNK-6 (IL-2 2.5 ng/mL) [5] | 0
YT (IL-2 2.5 ng/mL) [9] | 0
[1] | 0.89
[2] | 0
[4] | 3.33
[7] | 0.23
[11] | 5.8

percent inhibition of viability [%]
Conditions | 0.25 nM | 2.5 nM | 25 nM | 250 nM | 2500 nM
DERL-7 (IL-2 2.5 ng/mL) [24] | 3.63 | 5.92 | -4.52 | 1.56 | 21.8
IMC-1 (IL-2 20 ng/mL) [28] | -2.25 | -2.84 | -3.12 | -7.73 | -4.42
KAI3 (IL-2 2.5 ng/mL) [17] | 0.47 | 4.56 | -2.83 | 3.89 | 7.4
KHYG-1 (IL-2 2.5 ng/mL) [20] | 0.86 | -4.67 | -2.14 | -5.38 | -4.91
NK-92 (IL-2 2.5 ng/mL) [22] | 7.74 | -3.66 | -9.06 | -14.7 | -17.8
NK-YS (IL-2 2.5 ng/mL) [27] | -0.73 | -3.11 | -3.16 | -7.84 | -1.32
NKL (IL-2 2.5 ng/mL) [26] | -3.75 | -12.6 | -15.7 | -9.51 | -1.79
SNK-6 (IL-2 2.5 ng/mL) [19] | 10.1 | 11.8 | 6.18 | -2.76 | -12.8
YT (IL-2 2.5 ng/mL) [23] | 2.57 | -0.77 | -0.72 | -2.37 | 3.15
[15] | -2.81 | -5.61 | -7.59 | -0.13 | -2.11
[16] | -5.64 | -4.98 | -6.68 | -5.81 | 0.68
[18] | -2.74 | -3.9 | 0.34 | 4.28 | 50.2
[21] | -8.08 | -2.52 | -12.5 | -0.57 | 15.4
[25] | -7.32 | -13.8 | 7.94 | 12 | 69

CN(C)Cc1ccc(S(=O)(=O)n2ccc(/C=C/C(=O)NO)c2)cc1 [Resminostat] (max concentration tested 10000 nM)
Conditions | drug sensitivity score
DERL-7 (IL-2 2.5 ng/mL) [10] | 11.5
IMC-1 (IL-2 20 ng/mL) [14] | 5.11
KAI3 (IL-2 2.5 ng/mL) [3] | 17.1
KHYG-1 (IL-2 2.5 ng/mL) [6] | 13.4
NK-92 (IL-2 2.5 ng/mL) [8] | 14.1
NK-YS (IL-2 2.5 ng/mL) [13] | 10.3
NKL (IL-2 2.5 ng/mL) [12] | 18.2
SNK-6 (IL-2 2.5 ng/mL) [5] | 12.3
YT (IL-2 2.5 ng/mL) [9] | 9.67
[1] | 10.6
[2] | 8.68
[4] | 13
[7] | 10.2
[11] | 16.1

percent inhibition of viability [%]
Conditions | 1 nM | 10 nM | 100 nM | 1000 nM | 10000 nM
DERL-7 (IL-2 2.5 ng/mL) [24] | 2.49 | 1.77 | -10 | 47.9 | 101
IMC-1 (IL-2 20 ng/mL) [28] | -6.01 | -4.89 | -2.77 | -7.01 | 101
KAI3 (IL-2 2.5 ng/mL) [17] | 1.92 | 3.59 | 28.4 | 71.5 | 104
KHYG-1 (IL-2 2.5 ng/mL) [20] | -5.72 | -0.43 | 1.19 | 68.5 | 106
NK-92 (IL-2 2.5 ng/mL) [22] | -4.22 | -5.89 | 2.76 | 72.4 | 104
NK-YS (IL-2 2.5 ng/mL) [27] | -6.67 | -3.77 | 2.32 | 34.2 | 103
NKL (IL-2 2.5 ng/mL) [26] | 10.2 | 0.52 | 26.1 | 80.8 | 106
SNK-6 (IL-2 2.5 ng/mL) [19] | 11.1 | 1.11 | 5.35 | 56.6 | 101
YT (IL-2 2.5 ng/mL) [23] | -1.93 | -2.18 | 2.96 | 27.7 | 105
[15] | -4.58 | -2.4 | -0.88 | 36.9 | 101
[16] | -1.68 | 4.21 | 3.8 | 20.1 | 98.5
[18] | 2.24 | 11.9 | 12.7 | 57.5 | 98.9
[21] | -6.44 | 4.91 | 8.82 | 42 | 97.4
[25] | -6.63 | 11.2 | 20.3 | 73.7 | 89.4

Reference: the supplement of paper PMC5908809
